This assay has as its target GSK3β (Homo sapiens, UniProt P49841). The experiment in a line: Inhibitory activity against GSK3β (33P-ATP phosphorylation of prephosphorylated GS1 peptide). Format: biochemical. To be noted: protocol 3: 7.5 μM GS1 peptide, 10 μM ATP, 50 mM Hepes pH 7.2, one hour at room temperature. How it is done:
Four different protocols can be used.
In a first protocol: 7.5 μM of prephosphorylated GS1 peptide and 10 μM ATP (containing 300,000 cpm of ^33P-ATP) were incubated in 25 mM Tris-HCl, pH 7.5, 0.6 mM DTT, 6 mM MgCl2, 0.6 mM EGTA, 0.05 mg/ml BSA buffer for 1 hour at room temperature in the presence of GSK3beta (total reaction volume: 100 microliters).
In a second protocol: 4.1 μM of prephosphorylated GS1 peptide and 42 μM ATP (containing 260,000 cpm ^33P-ATP) were incubated in 80 mM Mes-NaOH, pH 6.5, 1 mM Mg acetate, 0.5 mM EGTA, 5 mM 2-mercaptoethanol, 0.02% Tween 20, 10% glycerol buffer for 2 hours at room temperature in the presence of GSK3beta.
In a third protocol: 7.5 μM of prephosphorylated GS1 peptide and 10 μM ATP (containing 300,000 cpm of ^33P-ATP) were incubated in 50 mM Hepes, pH 7.2, 1 mM DTT, 1 mM MgCl2, 1 mM EGTA, 0.01% Tween 20 buffer for one hour at room temperature in the presence of GSK3beta (total reaction volume: 100 microliters). […]
The reaction was stopped with 100 microliters of a solution made of 25 g polyphosphoric acid (85% P2O5), 126 ml 85% H3PO4, H2O to 500 ml and then diluted to 1:100 before use. […] Incorporated ^33P radioactivity was determined by liquid scintillation spectrometry. […]

Chain of GSK3β (P49841 whole entry): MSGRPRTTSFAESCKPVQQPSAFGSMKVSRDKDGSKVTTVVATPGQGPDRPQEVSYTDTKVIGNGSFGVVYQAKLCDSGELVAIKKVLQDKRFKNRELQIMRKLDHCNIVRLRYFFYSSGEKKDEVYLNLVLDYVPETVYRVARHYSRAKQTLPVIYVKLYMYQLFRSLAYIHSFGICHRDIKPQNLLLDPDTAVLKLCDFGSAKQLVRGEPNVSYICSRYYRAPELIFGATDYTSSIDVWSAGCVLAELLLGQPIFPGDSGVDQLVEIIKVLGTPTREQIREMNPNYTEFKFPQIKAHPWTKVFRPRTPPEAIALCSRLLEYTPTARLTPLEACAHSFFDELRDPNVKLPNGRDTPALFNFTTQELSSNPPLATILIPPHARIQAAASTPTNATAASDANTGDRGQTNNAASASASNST

For the compound `[O-][n+]1cc(NCC(O)c2ccccc2)nc(-c2ccncc2)c1` (racemic) [compound 2, (+/−)2-[(4-oxido-6-pyridin-4-ylpyrazin-2-yl)amino]-1-phenylethanol], the midpoint of inhibition, the IC50, lay at 506 nM.

What is called IC50 is the concentration that inhibits the measured activity by half. Lower therefore signals greater potency in that assay.

The values are drawn from patent publication US8202874B2, “Substituted N-oxide pyrazine derivatives” (Mitsubishi Tanabe Pharma Corporation, priority 2008, dated 2012).
